Laboratory results reported in patent US12281095B2, “Pesticidally active diazine-amide compounds” (SYNGENTA CROP PROTECTION AG, priority 2019, dated 2025).

Columns and labels:
Format in all cases: in vivo
[1] = system: Diabrotica balteata (Corn Root Worm); experiment: Example B1: Diabrotica balteata (Corn Root Worm), sprayed maize sprouts; conditions: 96 h, application rate of 200 ppm, L2 larvae, 4 days after infestation, read-out: control in at least one of the two categories (mortality or growth inhibition)
Description: Example B1: Diabrotica balteata (Corn Root Worm)
Maize sprouts placed onto an agar layer in 24-well microtiter plates were treated with aqueous test solutions prepared from 10′000 ppm DMSO stock solutions by spraying. After drying, the plates were infested with L2 larvae (6 to 10 per well). The samples were assessed for mortality and growth inhibition in comparison to untreated samples 4 days after infestation.

[2] = system: Euschistus heros (Neotropical Brown Stink Bug); experiment: Example B2: Euschistus heros (Neotropical Brown Stink Bug), sprayed soybean leaves; conditions: 120 h, application rate of 200 ppm, N2 nymphs, 5 days after infestation, read-out: control in at least one of the two categories (mortality or growth inhibition)
Description: Example B2: Euschistus heros (Neotropical Brown Stink Bug)
Soybean leaves on agar in 24-well microtiter plates were sprayed with aqueous test solutions prepared from 10′000 ppm DMSO stock solutions. After drying the leaves were infested with N2 nymphs. The samples were assessed for mortality and growth inhibition in comparison to untreated samples 5 days after infestation.

[3] = system: Chilo suppressalis (Striped Rice Stemborer); experiment: Example B4: Chilo suppressalis (Striped Rice Stemborer), artificial diet; conditions: 144 h, application rate of 200 ppm, L2 larvae, 6 days after infestation, read-out: control in at least one of the three categories (mortality, anti-feedant or growth inhibition)
Summary of the method: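 Artificial diet was treated with aqueous dilutions made from 10'000 ppm DMSO stocks, dried, then infested with L2 larvae at 6–8 per well. Mortality, antifeedant effect and growth inhibition were assessed against untreated samples 6 days after infestation.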

[4] = system: Plutella xylostella (Diamond Back Moth); experiment: Example B5: Plutella xylostella (Diamond Back Moth), artificial diet, 24-well; conditions: 192 h, application rate of 200 ppm, eggs, 8 days after infestation, read-out: control in at least one of the two categories (mortality or growth inhibition)
Description: Example B5: Plutella xylostella (Diamond Back Moth)
24-well microtiter plates with artificial diet were treated with aqueous test solutions prepared from 10′000 ppm DMSO stock solutions by pipetting. After drying, Plutella eggs were pipetted through a plastic stencil onto a gel blotting paper and the plate was closed with it. The samples were assessed for mortality and growth inhibition in comparison to untreated samples 8 days after infestation.

[5] = system: Myzus persicae (Green Peach Aphid); experiment: Example B8: Myzus persicae (Green Peach Aphid): Intrinsic Activity; conditions: 120 h, test rate of 12 ppm, sucrose solution, 5 days after infestation
From the text: Example B8: Myzus persicae (Green Peach Aphid): Intrinsic Activity
Test compounds prepared from 10′000 ppm DMSO stock solutions were applied by pipette into 24-well microtiter plates and mixed with sucrose solution. The plates were closed with a stretched Parafilm. A plastic stencil with 24 holes was placed onto the plate and infested pea seedlings were placed directly on the Parafilm. The infested plate was closed with a gel blotting paper and another plastic stencil and then turned upside down. The samples were assessed for mortality 5 days after infestation.

[6] = system: Spodoptera littoralis (Egyptian Cotton Leaf Worm); experiment: Example B9: Spodoptera littoralis (Egyptian Cotton Leaf Worm), sprayed cotton leaf discs; conditions: foliar, 72 h, application rate of 200 ppm, L1 larvae, 3 days after infestation, read-out: control in at least one of the three categories (mortality, anti-feedant or growth inhibition)
[7] = system: Myzus persicae (Green Peach Aphid); experiment: Example B12: Myzus persicae (Green Peach Aphid), 96-well sucrose solution; conditions: 120 h, application rate of 50 ppm, 5 days after infestation
From the text: Example B12: Myzus persicae (Green Peach Aphid)
Test compounds prepared from 10′000 ppm DMSO stock solutions were applied by a liquid handling robot into 96-well microtiter plates and mixed with a sucrose solution. Parafilm was stretched over the 96-well microtiter plate and a plastic stencil with 96 holes was placed onto the plate. Aphids were sieved into the wells directly onto the Parafilm. The infested plates were closed with a gel blotting card and a second plastic stencil and then turned upside down. The samples were assessed for mortality 5 days after infestation.

[8] = system: Plutella xylostella (Diamondback Moth); experiment: Example B13: Plutella xylostella (Diamondback Moth), artificial diet, 96-well; conditions: 216 h, application rate of 500 ppm, eggs/L1 larvae, 9 days after infestation
Description: Example B13: Plutella xylostella (Diamondback Moth)
96-well microtiter plates containing artificial diet were treated with aqueous test solutions, prepared from 10′000 ppm DMSO stock solutions, by a liquid handling robot. After drying, eggs (˜30 per well) were infested onto a netted lid which was suspended above the diet. The eggs hatch and L1 larvae move down to the diet. The samples were assessed for mortality 9 days after infestation.

CC(NC(=O)c1cc(C(F)(F)F)cc(C2(C#N)CC2)c1)c1nccnc1-c1ncc(OCC(F)(F)F)cn1 (centres unmarked) [P2, 3-(1-cyanocyclopropyl)-N-[1-[3-[5-(2,2,2-trifluoroethoxy)pyrimidin-2-yl]pyrazin-2-yl]ethyl]-5-(trifluoromethyl)benzamide]
≥ 80%: percent control (mortality or growth inhibition) at 200 ppm [1] | percent control (mortality or growth inhibition) at 200 ppm [2] | percent control (mortality, anti-feedant effect or growth inhibition) at 200 ppm [3] | percent control (mortality or growth inhibition) at 200 ppm [4] | mortality at 12 ppm [5] | percent control (mortality, anti-feedant effect or growth inhibition) at 200 ppm [6]

CC(NC(=O)c1cc(C(F)(F)F)cc(C(C)(C)C#N)c1)c1nccnc1-c1ccc(C#N)cn1 (centres unmarked) [P9, 3-(1-cyano-1-methyl-ethyl)-N-[1-[3-(5-cyano-2-pyridyl)pyrazin-2-yl]ethyl]-5-(trifluoromethyl)benzamide]
≥ 80%: percent control (mortality or growth inhibition) at 200 ppm [1] | percent control (mortality, anti-feedant effect or growth inhibition) at 200 ppm [3] | percent control (mortality or growth inhibition) at 200 ppm [4] | mortality at 12 ppm [5] | percent control (mortality, anti-feedant effect or growth inhibition) at 200 ppm [6]

CC(NC(=O)c1cc(C(F)(F)F)cc(C2(C#N)CC2)c1)c1nccnc1-c1ccc(C#N)cn1 (centres unmarked) [P25, 3-(1-cyanocyclopropyl)-N-[1-[3-(5-cyano-2-pyridyl)pyrazin-2-yl]eth-yl]-5-(trifluoromethyl)benzamide]
≥ 80%: percent control (mortality or growth inhibition) at 200 ppm [1] | percent control (mortality, anti-feedant effect or growth inhibition) at 200 ppm [3] | percent control (mortality or growth inhibition) at 200 ppm [4] | percent control (mortality, anti-feedant effect or growth inhibition) at 200 ppm [6] | mortality at 50 ppm [7] | mortality at 500 ppm [8]

CC(NC(=O)c1cc(C2CC2)cc(C(F)(F)F)c1)c1nccnc1-c1ncc(OCC(F)F)cn1 (centres unmarked) [P37, 3-cyclopropyl-N-[1-[3-[5-(2,2-difluoroethoxy)pyrimidin-2-yl]pyrazin-2-yl]ethyl]-5-(trifluoromethyl)benzamide]
≥ 80%: percent control (mortality or growth inhibition) at 200 ppm [1] | percent control (mortality, anti-feedant effect or growth inhibition) at 200 ppm [3] | percent control (mortality or growth inhibition) at 200 ppm [4] | mortality at 12 ppm [5] | percent control (mortality, anti-feedant effect or growth inhibition) at 200 ppm [6] | mortality at 500 ppm [8]

CC(NC(=O)c1cc(C(F)(F)F)cc(C(C)(C)C#N)c1)c1nccnc1-c1ncc(OCC(F)(F)F)cn1 (centres unmarked) [P47, 3-(1-cyano-1-methyl-ethyl)-N-[1-[3-[5-(2,2,2-trifluoroethoxy)pyrimidin-2-yl]pyrazin-2-yl]ethyl]-5-(trifluoromethyl)benzamide]
≥ 80%: percent control (mortality or growth inhibition) at 200 ppm [1] | percent control (mortality or growth inhibition) at 200 ppm [2] | percent control (mortality, anti-feedant effect or growth inhibition) at 200 ppm [3] | percent control (mortality or growth inhibition) at 200 ppm [4] | mortality at 12 ppm [5] | percent control (mortality, anti-feedant effect or growth inhibition) at 200 ppm [6]
